Reference: article PMC6804044, “Design, Synthesis and Biological Evaluation of Pentacyclic Triterpene Derivatives: Optimization of Anti-ABL Kinase Activity” (Molecules, 2019)
Entries after “also recorded” stand apart in the source; their conditions may differ. Where two headings read alike, the source gives them in different places.

Columns and labels:
[1] = system: peripheral blood mononuclear cells (PBMC); test: MTT cell viability assay, PBMC; format: cell-based; details: 24 h exposure
Procedure: (§1) A549 human lung carcinoma and HeLa human cervical carcinoma cell lines were cultured in Dulbecco’s Modified Eagle Medium (DMEM). MCF7 human breast cancer and leukemic (K562, HL-60, MT-2 and Jurkat) cells, and PBMC (Precision Bioservices, Frederic, MD, USA) were cultured in RPMI 1640. All media were purchased from FUJIFILM Wako (Osaka, Japan) and supplemented with 10% fetal bovine serum (FBS) (Sigma-Aldrich, St. Louis, MO, USA) and 89 μg/mL streptomycin (Meiji Seika Pharma, Tokyo, Japan) at 37 °C in a humid atmosphere and 5% CO2. In experiments, all cancer cell lines and PBMC were cultured in 24-well and 96-well plates (Iwaki brand Asahi Glass, Chiba, Japan) at 2 × 10^4 cells/mL and 1 × 10^6 cells/mL concentrations, respectively for 24 h.
(§2) The cells were exposed to various concentrations (1–100 μM) of the compounds for 24 h at 37 °C. The cells were then stained with MTT solution and incubated for additional 4 h. At the end of this period, supernatants were removed and 100 μL DMSO was added to each well to solubilize the formazan crystals. The absorbance of the solution was determined on the Infinitive M1000 (Tecan, Mannedorf, Switzerland) plate reader at a wavelength of 550 nm with background subtraction at 630 nm.

CML cell line K562 = test: MTT cell viability assay, K562; format: cell-based, human; details: for IC50: read-out: IC50 Values, K562 Cell Line; for SI (selectivity index): ratio of the IC50 between PBMC and K562 cells
Procedure: A549 human lung carcinoma and HeLa human cervical carcinoma cell lines were cultured in Dulbecco’s Modified Eagle Medium (DMEM). […] In experiments, all cancer cell lines and PBMC were cultured in 24-well and 96-well plates (Iwaki brand Asahi Glass, Chiba, Japan) at 2 × 10^4 cells/mL and 1 × 10^6 cells/mL concentrations, respectively for 24 h.
as §2, with “The” for “The cells were exposed to various concentrations (1–100 μM) of the compounds for 24 h at 37 °C. The”

[2] = system: ERK1/2 and phosphorylated ERK1/2 in K562 cells; test: Immunoblot analysis of ERK signaling in K562; format: cell-based, human; details: K562, 10 μM, 6 h
Procedure: After 6 h of treatment at 37 °C, the cells were lysed in PBS-Laemmli sample buffer and then, immunoblot analysis was conducted using phospho-specific-p44/42 MAPK (Erk1/2) (Thr202/Tyr204) (D13.14.4E) XP Rabbit mAb (1:1000) (Cell Signaling Technology, Danvers, MA, USA) or anti-β-actin clone AC-15 (Sigma-Aldrich, St. Louis, MO, USA). For immunoreactivity detection, the chemiluminescence method was performed as previously described. The band intensity was measured using the ImageJ software (NIH, Bethesda, MD, USA).

MCF7 human breast cancer = test: MTT cell viability assay, MCF7; format: cell-based; details: 24 h exposure
Procedure: as §1, §2

K562 cells = test: Cell death detection (Hoechst 33342/annexin V/ethidium homodimer III staining); format: cell-based, human; details: K562, IC50 concentration, 8 h
Procedure: The cells were then briefly washed twice with 1 × binding buffer. A staining solution containing 50 μL of 1 × binding buffer and 5 μL of FITC-Annexin V solution, 5 μL of ethidium homodimer III solution, or 5 μL of Hoechst 33342 solution was added, and incubated for 15 min at room temperature in the dark. Then, the cells were washed with 1 × binding buffer, and analyzed by the all-in-one fluorescence microscope Biorevo Fluorescence BZ-9000 (Keyence, Osaka, Japan). The number of healthy cells (Hoechst 33342), apoptotic cells (Annexin V), late apoptotic or necrotic cells (Annexin V and Ethidium homodimer III) and necrotic cells (Ethidium homodimer III) were counted as previously described.

[3] = system: A549 human lung carcinoma; test: MTT cell viability assay, A549; format: cell-based
Procedure: as §1, §2

HL-60 = test: MTT cell viability assay, HL-60; format: cell-based; details: Homo sapiens, 24 h exposure
Procedure: as §1, §2

MT-2 = test: MTT cell viability assay, MT-2; format: cell-based; details: Homo sapiens, MT2, 24 h exposure
Procedure: as §1, §2

Jurkat = test: MTT cell viability assay, Jurkat; format: cell-based; details: Homo sapiens, 24 h exposure
Procedure: as §1, §2

ABL1 kinase = target: T1, ABL1 kinase (Homo sapiens, UniProt P00519); test: ABL1 kinase inhibition (ADP-Glo Kinase Assay); format: biochemical
T1 construct: purchased Promega, Madison, WI, USA
T1 sequence (P00519 whole entry): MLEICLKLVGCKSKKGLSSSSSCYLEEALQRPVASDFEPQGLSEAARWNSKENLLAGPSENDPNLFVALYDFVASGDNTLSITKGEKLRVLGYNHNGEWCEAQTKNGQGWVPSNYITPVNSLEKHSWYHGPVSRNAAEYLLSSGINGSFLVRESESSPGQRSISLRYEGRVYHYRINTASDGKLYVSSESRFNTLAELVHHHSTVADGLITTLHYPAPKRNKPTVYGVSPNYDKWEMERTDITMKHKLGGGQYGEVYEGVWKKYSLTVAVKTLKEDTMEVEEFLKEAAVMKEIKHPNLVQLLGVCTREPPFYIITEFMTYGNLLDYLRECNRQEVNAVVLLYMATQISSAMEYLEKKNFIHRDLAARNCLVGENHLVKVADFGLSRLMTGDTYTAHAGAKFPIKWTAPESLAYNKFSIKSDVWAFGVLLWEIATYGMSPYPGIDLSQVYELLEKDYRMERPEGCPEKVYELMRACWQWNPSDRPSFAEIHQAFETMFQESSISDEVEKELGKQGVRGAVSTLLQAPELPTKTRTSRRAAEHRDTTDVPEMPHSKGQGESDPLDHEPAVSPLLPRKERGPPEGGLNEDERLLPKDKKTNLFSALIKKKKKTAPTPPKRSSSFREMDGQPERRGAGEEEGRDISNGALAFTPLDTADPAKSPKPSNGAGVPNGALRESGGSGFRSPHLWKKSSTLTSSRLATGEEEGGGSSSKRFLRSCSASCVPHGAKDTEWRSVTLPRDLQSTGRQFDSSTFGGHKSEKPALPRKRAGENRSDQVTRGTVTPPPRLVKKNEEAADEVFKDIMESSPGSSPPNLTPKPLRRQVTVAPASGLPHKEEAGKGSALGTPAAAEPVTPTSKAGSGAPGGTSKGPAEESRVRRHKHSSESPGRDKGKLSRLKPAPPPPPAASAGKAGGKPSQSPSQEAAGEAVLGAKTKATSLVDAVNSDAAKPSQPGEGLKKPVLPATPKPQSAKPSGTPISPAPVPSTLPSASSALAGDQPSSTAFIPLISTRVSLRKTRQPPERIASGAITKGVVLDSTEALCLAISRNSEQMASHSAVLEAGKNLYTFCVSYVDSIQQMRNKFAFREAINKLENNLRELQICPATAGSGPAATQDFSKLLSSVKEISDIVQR
Procedure: The ABL1 kinase profiling assay protocol was applied according to the manufacturer`s instructions (Promega, Madison, WI, USA) with the modification proposed in [36]. In this system, the ABL1 kinase and its substrate were diluted with 95 µL 2.5x Kinase Buffer and 15 µL of 100 µM ATP solutions, respectively. Then, the reaction of ABL1 kinase was performed using 2 µL of the compound solution at varying concentrations (0.1–30 µM), 4 µL of kinase working stock, and 4 µL of ATP/substrate working stock in the 384-well plate. After 1 h of incubation at room temperature, the activity of the ABL1 kinase was detected using the ADP-Glo Kinase Assay (Promega, Madison, WI, USA) and the inhibitory kinase activity of compounds in dose-response mode was measured by the Infinitive M1000 luminescence plate reader (Tecan, Groding, Austria).

[4] = system: HeLa human cervical carcinoma; test: MTT cell viability assay, HeLa; format: cell-based; details: 24 h exposure
Procedure: as §1, §2

[5] = Homo sapiens, K562, 24 h, MTT, 24 h exposure

Compound	IC50 (CML cell line K562; [5]) [µM]	IC50 ([1]; PBMC) [µM]	SI (selectivity index) (CML cell line K562)	other results
C[C@H]1[C@H](C)CC[C@]2(C(=O)O)CC[C@]3(C)C(=CC[C@@H]4[C@@]5(C)C[C@@H](O)[C@H](O)[C@@](C)(CO)[C@@H]5CC[C@]43C)[C@H]12 [AA, asiatic acid, reference compound]	29.3 ± 3.42	> 100	>3.41	
C=C(C)[C@@H]1CC[C@]2(C(=O)O)CC[C@]3(C)[C@H](CC[C@@H]4[C@@]5(C)CC[C@H](O)C(C)(C)[C@@H]5CC[C@]43C)[C@@H]12 [BA, betulinic acid, reference compound]	52.3 ± 4.79	> 100	>1.91	
CC1(C)CC[C@]2(C(=O)OCc3cc(F)cc(F)c3)CC[C@]3(C)C(=CC[C@@H]4[C@@]5(C)CC[C@H](O)[C@@](C)(C=O)[C@@H]5CC[C@]43C)[C@@H]2C1 [GP4, Gypsogenin 3,5-difluorobenzyl ester]	5.13 ± 1.38	28.3 ± 2.25	5.51	melting point: 58 to 60 °C
CC1(C)CC[C@]2(C(=O)OCc3ccc(C(F)(F)F)cc3)CC[C@]3(C)C(=CC[C@@H]4[C@@]5(C)CC[C@H](O)[C@@](C)(C=O)[C@@H]5CC[C@]43C)[C@@H]2C1 [GP3, Gypsogenin 4-trifluoromethyl benzyl ester]	4.58 ± 1.49	23.2 ± 3.08	5.07	melting point: 175 to 177 °C
CC1(C)[C@@H](O)CC[C@]2(C)[C@H]3C(=O)C=C4[C@@H]5C[C@@](C)(C(=O)OCc6ccccc6)CC[C@]5(C)CC[C@@]4(C)[C@]3(C)CC[C@@H]12 [PT3, Glycyrrhetic acid benzyl ester]		> 100	>1.44	IC50 (CML cell line K562; Homo sapiens, K562, 24 h): 69.5 ± 8.43 µM
COc1ccc(COC(=O)[C@]23CCC(C)(C)C[C@H]2C2=CC[C@@H]4[C@@]5(C)CC[C@H](O)[C@@](C)(C=O)[C@@H]5CC[C@@]4(C)[C@]2(C)CC3)cc1 [GP1, Gypsogenin 4-methoxybenzyl ester]	5.53 ± 1.78	25.1 ± 2.92	4.53	melting point: 78 to 80 °C
CC1(C)CC[C@]2(C(=O)OCc3ccccc3)CC[C@]3(C)C(=CC[C@@H]4[C@@]5(C)CC[C@H](O)C(C)(C)[C@@H]5CC[C@]43C)[C@@H]2C1 [PT5, Oleanolic acid benzyl ester]	~5.5	50.2 ± 4.58	9.19	ERK phosphorylation (phosphorylated ERK1/2) [2]: inhibitory effect of ERK phosphorylation; amount of ERK1/2 [2]: moderately decreased; IC50 (MCF7 human breast cancer): 53.9 ± 6.46 µM; apoptotic effects on CML cell line (K562 cells): 14%; late apoptotic/necrotic effects (K562 cells): 11%; activity against A549 cell line at 100 µM ([3]; 100 µM): inactive; IC50 ([3]; Homo sapiens, A549, MTT, 24 h exposure): > 100 µM; IC50 (HL-60): 15.7 ± 1.36 µM; IC50 (CML cell line K562; MTT, 24 h exposure): 5.46 ± 1.51 µM; IC50 (MT-2): 34.7 ± 3.85 µM; IC50 (Jurkat): 13.8 ± 1.58 µM; IC50 (ABL1 kinase; ADP-Glo, 1 h incubation, room temperature): 1.44 ± 0.12 µM; ABL kinase IC50 potency relative to 1c (ABL1 kinase; fold vs 1c): six times stronger; also recorded: about sixfold; IC50 [4]: 67 ± 4.19 µM
Cc1ccc(NC(=O)c2ccc(CN3CCN(C)CC3)cc2)cc1Nc1nccc(-c2cccnc2)n1 [Imatinib, reference compound]				apoptotic effects on CML cell line (K562 cells): 18%; late apoptotic/necrotic effects (K562 cells): 5.6%
CC1(C)[C@@H](O)CC[C@]2(C)[C@H]3C(=O)C=C4[C@@H]5C[C@@](C)(C(=O)O)CC[C@]5(C)CC[C@@]4(C)[C@]3(C)CC[C@@H]12 [GA, glycyrrhetinic acid, reference compound]	41 ± 5.34	> 100	>2.43	
C=C(C)[C@@H]1CC[C@]2(C(=O)OCc3ccccc3)CC[C@]3(C)[C@H](CC[C@@H]4[C@@]5(C)CC[C@H](O)C(C)(C)[C@@H]5CC[C@]43C)[C@@H]12 [PT2, Betulinic acid benzyl ester]	8.49 ± 1.22	28 ± 2.74	3.29	
gypsogenin [GP, reference compound]				IC50 [1]: > 100 µM; IC50 (CML cell line K562; MTT, 24 h exposure): 12.7 ± 2.15 µM

The next lines start with results.

IC50 (CML cell line K562; [5]) [µM]	Compound	IC50 ([1]; PBMC) [µM]	SI (selectivity index) (CML cell line K562)	other results
21.8 ± 1.24	C[C@H]1[C@H](C)CC[C@]2(C(=O)OCc3ccccc3)CC[C@]3(C)C(=CC[C@@H]4[C@@]5(C)CC[C@H](O)C(C)(C)[C@@H]5CC[C@]43C)[C@H]12 [PT6, Ursolic acid benzyl ester]	43.3 ± 1.93	1.99	
~13	CC1(C)CC[C@]2(C(=O)O)CC[C@]3(C)C(=CC[C@@H]4[C@@]5(C)CC[C@H](O)C(C)(C)[C@@H]5CC[C@]43C)[C@@H]2C1 [OA, oleanolic acid, reference compound]	> 100		IC50 (CML cell line K562; MTT, 24 h exposure): 13.5 ± 2.55 µM
> 100	CC1(C)CC[C@]2(C(=O)O)CC[C@]3(C)C(=CC[C@@H]4[C@@]5(C)CC[C@H](O)[C@@](C)(CO)[C@@H]5CC[C@]43C)[C@@H]2C1 [HE, hederagenin, reference compound]	> 100	>1	
16.5 ± 1.13	C[C@H]1[C@H](C)CC[C@]2(C(=O)O)CC[C@]3(C)C(=CC[C@@H]4[C@@]5(C)CC[C@H](O)C(C)(C)[C@@H]5CC[C@]43C)[C@H]12 [UA, ursolic acid, reference compound]	> 100	>6.06	
4.1 ± 0.85	C[C@H]1[C@H](C)CC[C@]2(C(=O)OCc3ccccc3)CC[C@]3(C)C(=CC[C@@H]4[C@@]5(C)C[C@@H](O)[C@H](O)[C@@](C)(CO)[C@@H]5CC[C@]43C)[C@H]12 [PT1, Asiatic acid benzyl ester]	15.5 ± 1.08	3.79	
6.48 ± 1.27	CC1(C)CC[C@]2(C(=O)OCc3ccccc3)CC[C@]3(C)C(=CC[C@@H]4[C@@]5(C)CC[C@H](O)[C@@](C)(CO)[C@@H]5CC[C@]43C)[C@@H]2C1 [PT4, Hederagenin benzyl ester]	23.1 ± 3.11	3.56	cytotoxicity on K562 relative to parent triterpene HE (CML cell line K562; fold vs HE): more than 15 times
